Experimental data reported in US20240382484A1, “COMPOSITION FOR TREATING, PREVENTING, OR AMELIORATING MELANOMA AND METHOD THEREOF” (Thomas Jefferson University, priority 2021, published 2024).

Legend:
[1] = test system: human NRAS mutant melanoma cell lines; assay: 72 hours drug combination, cell density by IncuCyte, synergy by Combenefit with Loewe method; assay type: cell-based; details: for synergy with MEKi (trametinib): WM1361A and WM1366 cells, 72 hours
Description: FIG. 10A-10B: Cas9 expressed clone WM1361A-iCas9 #1 (FIG. 10A), and WM1366-iCas9 #11 (FIG. 10B) cells were treated for 72 hours as indicated with GSK2334470 and trametinib and analyzed for cell density by IncuCyte. Synergy graphs were generated utilizing Combenefit Software with Loewe method. Data are represented as the mean from three biological independent experiments.
FIG. 11A: WM1361A, WM1366, SK-MEL-30 and SK-MEL-173 cells were treated for 72 hours as indicated with GSK2334470 and PD0325901 and analyzed for cell density by IncuCyte. Synergy graphs were generated utilizing Combenefit Software with Loewe method. Data are represented as the mean from three biological independent experiments. FIG. 11B: WM1361A, WM1366, SK-MEL-30 or SK-MEL-173 cells were treated with GSK2334470 (PDPK1i) and PD0325901 (PD901) alone or in combination (Comb) at the indicated concentrations for 7 days. Cell growth was monitored by IncuCyte every 2 hours. Data are represented as the mean±SEM of three biological independent experiments. p values were calculated with an unpaired two-tailed t test. n.s., not significant.
FIG. 16A: WM1361A and WM1366 cells were treated for 72 hours with indicated inhibitors and analyzed for cell density by IncuCyte. Synergy graphs were generated utilizing Combenefit Software with Loewe method. Data are represented as the mean from three biological independent experiments.
Human WM1361A and WM1366 melanoma cell lines were cultured in MCDB153 (Sigma) with 2% FBS, 20% Leibowitz L-15 medium, and 5 μg/mL insulin (WM medium). Human SK-MEL-30 and SK-MEL-173 melanoma cell lines were cultured in RPMI-1640 with 10% FBS. […] All cells were cultured at 37° C. in a humidified atmosphere containing 5% CO2. […] Cell lines were STR analyzed, confirmed for NRAS/Nras mutation, and tested to be mycoplasma-free during experiments. For cell proliferation and drug response, cells were monitored by IncuCyte® (Essen Bioscience, Ann Arbor, MI) every 2 hours.

NRAS mutant melanoma = details: Phase III, NRAS mutant melanoma patients; cited from earlier work
WM1361A-iCas9 #1 cells = assay: Growth inhibition by single agents or combined inhibitors for 3 days, Bliss independence model; assay type: cell-based, human
Description: FIGS. 1A-1H: CRISPR screen identifies PDPK1, in accordance with some embodiments. FIG. 1A: Workflow of the CRISPR-Cas9 screen for genes that are essential for cell survival or act as regulators of trametinib (MEKi) sensitivity and resistance in NRAS mutant melanoma WM1361A-iCas9 #1 cells. FIGS. 1B-1D: WM1361A-iCas9 #1 cells were transduced with the Guide-it CRISPR Genome-Wide sgRNA Library. After 3 days, mCherry positive cells were determined by FACS analysis (FIG. 1). On the 24th day post infection, the cells were treated with 20 nM trametinib for further 14 days (FIG. 1C) or 0.01-0.02 nM trametinib for further 28 days (FIG. 1D). The top enriched or depleted sgRNAs targeted genes are shown. FIG. 1E, The top depleted sgRNAs targeted genes before trametinib treatment. FIG. 1F: WM1361A-iCas9 #1 cells were treated with single agents or combined inhibitors for 3 days. The growth inhibition was shown as observed inhibition (left), or was calculated as Bliss independence model (middle). The synergistic or antagonist effects (right) were calculated as Observed inhibition %−Expected inhibition %. […]
The present study further analyzed druggable essential genes with high STARS scores (>2.14 of NRAS) in WM1361A-iCas9 cells which were also identified as therapeutic targets with high priority scores (>30) in NRAS mutant melanoma SK-MEL-2 cells in a published database. […]

[2] = test system: mouse Nras mutant melanoma cell lines; assay: 72 hours drug combination, cell density by IncuCyte, synergy by Combenefit with Loewe method; assay type: cell-based; details: two mouse lines (1007 and 1014), 3-day treatment
Description: FIG. 2A: NRAS mutant melanoma cell line WM1361A, WM1366, SK-MEL-30, SK-MEL-173, 1007 and 1014 were treated for 72 hours as indicated with GSK2334470 and trametinib and analyzed for cell density by IncuCyte. Synergy graphs were generated utilizing Combenefit Software with Loewe method. Data are represented as the mean from three biological independent experiments. FIG. 2B: WM1361A, WM1366, SK-MEL-30 or SK-MEL-173 cells were treated with GSK2334470 (PDPK1i) and trametinib (tram) alone or in combination (comb) at the indicated concentrations for 7 days. Cell growth was monitored by IncuCyte every 2 hours. Media were replaced twice with drugs during culture. Data are represented as the mean±SEM of three biological independent experiments. p values were calculated with an unpaired two-tailed t test. n.s., not significant.
To further analyze synergistic effects, the growth response of a panel of several NRAS mutant cells to titrated PDPK1i (GSK2334470) and MEKi (trametinib) combinations was assessed.
Human WM1361A and WM1366 melanoma cell lines were cultured in MCDB153 (Sigma) with 2% FBS, 20% Leibowitz L-15 medium, and 5 μg/mL insulin (WM medium). […] Cell lines were STR analyzed, confirmed for NRAS/Nras mutation, and tested to be mycoplasma-free during experiments. For cell proliferation and drug response, cells were monitored by IncuCyte® (Essen Bioscience, Ann Arbor, MI) every 2 hours.

Compound: Cl.Cl.NC1(c2ccc(-c3nc4ccn5c(=O)[nH]nc5c4cc3-c3ccccc3)cc2)CCC1 [MK-2206 2HCl]
- synergy with MEKi (trametinib) [1]: reduced synergy and even antagonistic effects

Compound: Cc1nc(-c2cn3c(n2)-c2ccc(-c4cnn(C(C)(C)C(N)=O)c4)cc2OCC3)n(C(C)C)n1 [GDC-0032]
- synergy with MEKi (trametinib) [1]: synergy with trametinib comparable to those with PDPK1i

Compound: COc1ccc(-c2ccc3c(N4CCOC[C@@H]4C)nc(N4CCOC[C@@H]4C)nc3n2)cc1CO [AZD8055]
- synergy with MEKi (trametinib) [1]: reduced synergy and even antagonistic effects

Compound: Cn1cnc2c(F)c(Nc3ccc(Br)cc3F)c(C(=O)NOCCO)cc21 [Binimetinib, 5-((4-bromo-2-fluorophenyl)amino)-4-fluoro-N-(2-hydroxyethoxy)-1-methyl-1H-benzo[d]imidazole-6-carboxamide]
- progression-free survival over standard chemotherapy (dacarbazine) (NRAS mutant melanoma): modest advantage

Compound: CNc1nc(-c2ccc3c(N)n[nH]c3c2)cc(N2C[C@@H](C(=O)NC3CCCCC3)CC[C@H]2C)n1 [GSK2334470, (3S,6R)-1-[6-(3-Amino-1H-indazol-6-yl)-2-(methylamino)-4-pyrimidinyl]-N-cyclohexyl-6-methyl-3-piperidinecarboxamide]
- synergy with MEKi (trametinib) on growth inhibition (WM1361A-iCas9 #1 cells): synergistic
- synergistic inhibition of cell viability, PDPK1i (GSK2334470) and MEKi (trametinib) combinations ([1]; two Cas9-expressed cell lines and four parental human lines (WM1361A, WM1366, SK-MEL-30, SK-MEL-173), 3-day treatment): Synergistic inhibition
- synergistic inhibition of cell viability, PDPK1i (GSK2334470) and MEKi (trametinib) combinations [2]: Synergistic inhibition
